According to US4588729A, “Treating convulsions with dihydrouracil derivatives” (Kyowa Hakko Kogyo Co., Ltd., priority 1984, dated 1986):

Assays:
[1] = test system: male dd-strain mice; assay: Maximal electroshock seizure test; format: in vivo; details: Mus musculus, po, 1 h, P.O., shock 60 minutes after administration, suppression of tonic extensor in at least 3 of 5 mice, read-out: MED for anticonvulsive action, Maximal electroshock seizure test
Procedure: (1) Maximal electroshock seizure test
Groups of mice, each consisting of 5 male dd-strain mice having a weight of 20±1 g were orally administered with some of said compounds and 60 minutes thereafter, an electric current of 2,000 V, 50 mA was passed to both eyes of the mouse for 0.2 seconds to observe occurrence of tonic extensor. Suppression of tonic extensor occurrence on at least three mice was regarded as effective, and MED (minimum effective dose) for suppressing the convulsion was determined.

[2] = test system: male dd-strain mice; assay: Pentetrazol-induced seizure test; format: in vivo; details: Mus musculus, po, P.O., 120 mg/kg pentetrazol s.c., suppression of clonic seizure in at least 3 of 5 mice, read-out: MED for anticonvulsive action, Pentetrazol-induced seizure test
Procedure: (2) Pentetrazol-induced seizure test
Groups of mice, each consisting of 5 male dd-strain mice having a weight of 20±1 g were subcutaneously administered by 120 mg/kg of pentetrazol, and occurrence of clonic seizure was observed. Suppression of clonic seizure occurrence on at least three mice was regarded as effective, and MED was determined.

[3] = Acute toxicity test; details: mouse, in vivo, po; P.O., mice, suspension in 0.3% CMC, 7 days after administration
[4] = test system: male Carworth Farm mice; assay: Anticonvulsive action: MES (maximum electroconvulsive procedure) and subcutaneous pentylenetetrazole seizure tests, combined evaluation; format: in vivo; details: Mus musculus, sc, dose levels 30, 100, 300 (600) mg/kg, MES and 85 mg/kg s.c. pentylenetetrazole tests, read-out: Evaluation (anticonvulsant activity class)
Procedure: The present test was performed in male Carworth Farm mice. All compounds were tested at least 3 dose levels (30, 100, 300 mg/kg) with a fourth dose of 600 mg/kg being performed when there was sufficient quantity available. The vehicles used to solubilize each compound were 30% aqueous polyethylene glycol solution (Compound Nos. 31 to 38, 45, 47 and 48) and 0.9% saline (Compound Nos. 44 and 46). The following two tests were performed. MES (Maximum electroconvulsive procedure) Maximal electroshock seizures were elicited with a 60 cycle alternating current of 50 mA intensity (5-7 times that necessary to elicit minimal electroshock seizures) delivered for 0.2 sec via corneal electrodes. A drop of 0.9% saline was instilled in the eye prior to application of the electrodes in order to prevent the death of the animal. Abolition of the hind limb tonic extension component of the seizure was defined as protection and results were expressed as: [formula] First, 85 mg/kg of pentylenetetrazole (produces seizures in greater than 95% of mice) was administered as a 0.5% solution subcutaneously in the posterior midline. […] Failure to observe even a threshold seizure (a single episode of clonic spasms of at least 5 sec duration) was defined as protection and the results were expressed as: [formula] (2) Evaluation method All results were classified into one of the following three evaluation standard: .circle.1 Anticonvulsant activity at 100 mg/kg or less .circle.2 Anticonvulsant activity at doses greater than 100 mg/kg, or anticonvulsant activity at 100 mg/kg not reinforced by similar activity at 300 mg/kg .circle.3 No anticonvulsant activity at doses up to and including 300 mg/kg

SMILES	minimal effective dose [1] [mg/kg]	minimal effective dose [2] [mg/kg]	LD50 at 168 h [3] [mg/kg]	minimal effective dose [4] [mg/kg]
CN1C(=O)CCN(c2cccc(C(F)(F)F)c2)C1=O [Compound 7, 3-methyl-1-(3-trifluoromethylphenyl)-dihydrouracil]	100	100	> 1000	–
CN1C(=O)CCN(c2ccc(Cl)cc2)C1=O [Compound 3, 1-(4-chlorophenyl)-3-methyl-dihydrouracil]	75	200	> 300	–
Cc1cc(Cl)ccc1N1CCC(=O)N(C)C1=O [Compound 9, 1-(2-methyl-4-chlorophenyl)-3-methyl-dihydrouracil]	150	200	> 300	–
CN1CCC(=O)N(c2ccccc2C(F)(F)F)C1=O [Compound 35, 1-methyl-3-(2-trifluoromethylphenyl)-dihydrouracil]	–	–	–	> 100
CCOC(=O)c1ccccc1N1C(=O)CCN(C)C1=O [Compound 48, 3-(2-ethoxycarbonylphenyl)-1-methyl-dihydrouracil]	–	–	–	≤ 100
CN1C(=O)CCN(c2ccc(C(F)(F)F)cc2)C1=O [Compound 33, 3-methyl-1-(4-trifluoromethylphenyl)-dihydrouracil]	100	300	> 300	≤ 100
CN1CCC(=O)N(c2ccccc2Cl)C1=O [Compound 29, 3-(2-chlorophenyl)-1-methyl-dihydrouracil]	150	150	> 300	–
CN1C(=O)CCN(c2ccc(N)cc2)C1=O.Cl [Compound 44, 1-(4-aminophenyl)-3-methyl-dihydrouracil hydrochloride]	–	–	–	≤ 100
CN1CCC(=O)N(c2cccc(Cl)c2Cl)C1=O [Compound 34, 3-(2,3-dichlorophenyl)-1-methyl-dihydrouracil]	150	300	> 300	≤ 100
CN1CCC(=O)N(c2cc(Cl)ccc2Cl)C1=O [Compound 24, 3-(2,5-dichlorophenyl)-1-methyl-dihydrouracil]	100	100	> 300	–
CN1CCC(=O)N(c2cccc3ccccc23)C1=O [Compound 47, 1-methyl-3-α-naphthyl-dihydrouracil]	100	200	> 300	≤ 100
CN1CCC(=O)N(c2ccc(Cl)cc2Cl)C1=O [Compound 36, 3-(2,4-dichlorophenyl)-1-methyl-dihydrouracil]	100	200	> 300	≤ 100
CN1C(=O)CCN(c2ccc(Cl)cc2Cl)C1=O [Compound 31, 1-(2,4-dichlorophenyl)-3-methyl-dihydrouracil]	100	100	> 300	≤ 100
CN1CCC(=O)N(c2ccccc2[N+](=O)[O-])C1=O [Compound 45, 1-methyl-3-(2-nitrophenyl)-dihydrouracil]	–	–	–	> 100
CN1CCC(=O)N(c2ccccc2N)C1=O.Cl [Compound 46, 3-(2-aminophenyl)-1-methyl-dihydrouracil hydrochloride]	–	–	–	> 100
CN1CCC(=O)N(c2ccccc2F)C1=O [Compound 38, 3-(2-fluorophenyl)-1-methyl-dihydrouracil]	–	–	–	> 100
O=C1CCN(c2ccc(Cl)cc2)C(=O)N1 [Compound 32, 1-(4-chlorophenyl)-dihydrouracil]	–	–	–	> 100
Cc1cccc(Cl)c1N1C(=O)CCN(C)C1=O [Compound 37, 3-(2-chloro-6-methylphenyl)-1-methyl-dihydrouracil]	–	–	–	> 100
